Source: PubChem BioAssay (NCI)
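Test compounds were applied to cells in 96-well plates for 48 hours at 5 doses. GI50 marks 50% less growth. The concentration for full growth arrest is given as TGI.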

Tests used:
Assay in all cases: NCI-60 cell line screen, 48 h
NCI-H23 lung = test system: NCI-H23 lung
NCI-H460 lung = test system: NCI-H460 lung
NCI-H522 lung = test system: NCI-H522 lung
NCI/ADR-RES ovarian = test system: NCI/ADR-RES ovarian
OVCAR-3 ovarian = test system: OVCAR-3 ovarian
OVCAR-4 ovarian = test system: OVCAR-4 ovarian
OVCAR-5 ovarian = test system: OVCAR-5 ovarian
OVCAR-8 ovarian = test system: OVCAR-8 ovarian
PC-3 prostate = test system: PC-3 prostate
RPMI-8226 leukemia = test system: RPMI-8226 leukemia
RXF 393 renal = test system: RXF 393 renal
SF-268 CNS = test system: SF-268 CNS
SF-539 CNS = test system: SF-539 CNS
SK-MEL-2 melanoma = test system: SK-MEL-2 melanoma
SK-MEL-28 melanoma = test system: SK-MEL-28 melanoma
SK-MEL-5 melanoma = test system: SK-MEL-5 melanoma
SK-OV-3 ovarian = test system: SK-OV-3 ovarian
SN12C renal = test system: SN12C renal
SNB-19 CNS = test system: SNB-19 CNS
SNB-75 CNS = test system: SNB-75 CNS
SR leukemia = test system: SR leukemia
SW-620 colon = test system: SW-620 colon
T-47D breast = test system: T-47D breast
TK-10 renal = test system: TK-10 renal
U251 CNS = test system: U251 CNS
UACC-257 melanoma = test system: UACC-257 melanoma
UACC-62 melanoma = test system: UACC-62 melanoma
UO-31 renal = test system: UO-31 renal

Work on `CCOC(=O)N1C/C(=C/c2ccc(F)cc2)C(=O)/C(=C/c2ccc(F)cc2)C1` yielded a GI50 (NCI-H23 lung) of 2350 nM, a TGI (NCI-H23 lung) of 5670 nM and a GI50 (NCI-H460 lung) of 1960 nM. For the same compound, the TGI (NCI-H460 lung) was 4560 nM, the GI50 (NCI-H522 lung) was 1950 nM and the TGI (NCI-H522 lung) was 3980 nM. It also gave a GI50 (NCI/ADR-RES ovarian) of 3280 nM, a TGI (NCI/ADR-RES ovarian) of 21100 nM and a GI50 (OVCAR-3 ovarian) of 1850 nM. For the same compound, the TGI (OVCAR-3 ovarian) was 3470 nM, the GI50 (OVCAR-4 ovarian) was 2240 nM and the TGI (OVCAR-4 ovarian) was 6380 nM. The GI50 (OVCAR-5 ovarian) was 1890 nM, the TGI (OVCAR-5 ovarian) was 3830 nM and the GI50 (OVCAR-8 ovarian) was 2470 nM. The TGI (OVCAR-8 ovarian) was 10800 nM, the GI50 (PC-3 prostate) was 1850 nM and the TGI (PC-3 prostate) was 5460 nM. The GI50 (RPMI-8226 leukemia) was 201 nM, the TGI (RPMI-8226 leukemia) was 772 nM and the GI50 (RXF 393 renal) was 1630 nM. It also gave a TGI (RXF 393 renal) of 3110 nM, a GI50 (SF-268 CNS) of 2200 nM and a TGI (SF-268 CNS) of 5520 nM. For the same compound, the GI50 (SF-539 CNS) was 1760 nM, the TGI (SF-539 CNS) was 3300 nM and the GI50 (SK-MEL-2 melanoma) was 2880 nM. It also gave a TGI (SK-MEL-2 melanoma) of 6390 nM, a GI50 (SK-MEL-28 melanoma) of 1800 nM and a TGI (SK-MEL-28 melanoma) of 3350 nM. The GI50 (SK-MEL-5 melanoma) was 1360 nM, the TGI (SK-MEL-5 melanoma) was 2670 nM and the GI50 (SK-OV-3 ovarian) was 2220 nM. For the same compound, the TGI (SK-OV-3 ovarian) was 4710 nM, the GI50 (SN12C renal) was 1590 nM and the TGI (SN12C renal) was 3160 nM. The GI50 (SNB-19 CNS) was 2080 nM, the TGI (SNB-19 CNS) was 6310 nM and the GI50 (SNB-75 CNS) was 2600 nM. The TGI (SNB-75 CNS) was 10700 nM, the GI50 (SR leukemia) was 341 nM and the TGI (SR leukemia) was 3610 nM. For the same compound, the GI50 (SW-620 colon) was 487 nM, the TGI (SW-620 colon) was 1740 nM and the GI50 (T-47D breast) was 2820 nM. The TGI (T-47D breast) was 7970 nM, the GI50 (TK-10 renal) was 2870 nM and the TGI (TK-10 renal) was 6990 nM. It also gave a GI50 (U251 CNS) of 1190 nM, a TGI (U251 CNS) of 2550 nM and a GI50 (UACC-257 melanoma) of 2860 nM. For the same compound, the TGI (UACC-257 melanoma) was 9650 nM, the GI50 (UACC-62 melanoma) was 1610 nM and the TGI (UACC-62 melanoma) was 3390 nM. The GI50 (UO-31 renal) was 1530 nM and the TGI (UO-31 renal) was 3070 nM.
